These results are taken from the NIST ThermoML archive (doi:10.1016/j.tca.2017.03.024).

SMILES strings stand for the structures. ± gives the expanded uncertainty stated by the source.

For this data set the following is noted: Crystal; DTA.
On to `[Cl-].[Li+]` [lithium chloride], for which the Normal melting temperature was 605 ± 1 °C. In the case of `[Cl][Pr]([Cl])[Cl]` [praseodymium(III) chloride], the Normal melting temperature stood at 778 ± 1 °C.

For `[Cl-].[K+]` [potassium chloride], the Normal melting temperature worked out at 772 ± 1 °C.
